Measurements taken from US11731958B2, “Carboxamide compounds and uses thereof” (Incyte Corporation, priority 2018, dated 2023).

Target: HPK1 (Homo sapiens (Human), UniProt Q92918)
Assay: HPK1 Kinase Binding Assay
Settings: LanthaScreen tracer 222 binding, active HPK1, one hour at 25° C.
Protocol: A stock solution of 1 mM test compound was prepared in DMSO. The compound plate was prepared by 3-fold and 11-point serial dilutions. 0.1 μL of the compound in DMSO was transferred from the compound plate to the white 384 well polystyrene plates. The assay buffer contained 50 mM HEPES, pH 7.5, 0.01% Tween-20, 5 mM MgCl2, 0.01% BSA, and 5 mM DTT. 5 μL of 4 nM active HPK1 (SignalChem M23-11G) prepared in the buffer was added to the plate. The enzyme concentration given was based on the given stock concentration reported by the vender. […] After one hour incubation at 25° C., the plates were read on a PHERAstar FS plate reader (BMG Labtech). Ki values were determined.

Chain of HPK1 (Q92918 1-346): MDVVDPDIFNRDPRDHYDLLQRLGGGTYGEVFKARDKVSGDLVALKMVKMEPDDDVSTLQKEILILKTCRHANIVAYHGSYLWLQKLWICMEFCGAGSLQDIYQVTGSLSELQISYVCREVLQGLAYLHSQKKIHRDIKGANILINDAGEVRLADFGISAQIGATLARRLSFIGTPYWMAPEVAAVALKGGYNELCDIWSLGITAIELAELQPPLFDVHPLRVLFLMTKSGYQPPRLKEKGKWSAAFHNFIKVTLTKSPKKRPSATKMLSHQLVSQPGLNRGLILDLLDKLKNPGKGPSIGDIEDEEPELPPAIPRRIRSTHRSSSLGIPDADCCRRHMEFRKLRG

Ki | SMILES
< 100 nM | COc1cccc(F)c1-c1nccc(C(=O)Nc2ccc(-c3c(C)nn(C)c3C)cc2N2C[C@@H]3C[C@H]2CN3)n1 [Example 27, N-(2-((1S,4S)-2,5-Diazabicyclo[2.2.1]heptan-2-yl)-4-(1,3,5-trimethyl-1H-pyrazol-4-yl)phenyl)-2-(2-fluoro-6-methoxyphenyl)pyrimidine-4-carboxamide]
< 100 nM | COc1cccc(F)c1-c1nccc(C(=O)Nc2cc(F)c(N3CCOCC3)cc2N2C[C@@H]3C[C@H]2CN3)n1 [Example 28, N-(2-((1S,4S)-2,5-Diazabicyclo[2.2.1]heptan-2-yl)-5-fluoro-4-morpholinophenyl)-2-(2-fluoro-6-methoxyphenyl)pyrimidine-4-carboxamide]
< 100 nM | COc1cccc(F)c1-c1nccc(C(=O)Nc2cc(F)c(N3CCC3)cc2N2C[C@@H]3C[C@H]2CN3)n1 [Example 29, N-(4-(Azetidin-1-yl)-2-((1S,4S)-2,5-diazabicyclo[2.2.1]heptan-2-yl)-5-fluorophenyl)-2-(2-fluoro-6-methoxyphenyl)pyrimidine-4-carboxamide]
< 100 nM | COc1cccc(F)c1-c1nccc(C(=O)Nc2cc(F)c(CN3CCOCC3)cc2N2C[C@@H]3C[C@H]2CN3)n1 [Example 30, N-(2-((1S,4S)-2,5-Diazabicyclo[2.2.1]heptan-2-yl)-5-fluoro-4-(morpholinomethyl)phenyl)-2-(2-fluoro-6-methoxyphenyl)pyrimidine-4-carboxamide]
